Reference: patent US7256286B2, “Bryostatin analogues, synthetic methods and uses” (The Board of Trustees of the Leland Stanford Junior …, priority 1999, dated 2007)

How the values were obtained:
RPMI-8226 = assay: NCI human cancer cell line growth inhibition: RPMI-8226; format: cell-based; conditions: RPMI-8226, Leukemia
HT29 = assay: NCI human cancer cell line growth inhibition: HT29; format: cell-based; conditions: HT29, Colon
IGROVI = assay: NCI human cancer cell line growth inhibition: IGROVI; format: cell-based; conditions: Ovarian
BT-549 = assay: NCI human cancer cell line growth inhibition: BT-549; format: cell-based; conditions: BT-549, Breast
PKCδ-C1B = molecular target: T1, PKCδ-C1B (Mus musculus, UniProt P28867); assay: PKCδ-C1B assay; format: binding
T1 construct: made in house
T1 sequence (P28867 231-281 limits assumed): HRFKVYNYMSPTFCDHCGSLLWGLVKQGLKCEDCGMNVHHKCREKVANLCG
Protocol: Phosphatidyl serine vesicles are prepared by the addition of phosphatidyl serine (10 mg/mL in chloroform, 0.4 mL) to a glass test tube followed by removal of the chloroform under a stream of nitrogen (5 min). […] The resulting solution is stored over ice. […] Stock solutions of compounds are diluted with absolute ethanol in glass in serial fashion. […] The tubes are incubated at 37° C. for 90 min. and then put on ice for 5 min. Each tube is then filtered separately through a pre-soaked filter disc. […] The filter is subsequently rinsed with cold 20 mM TRIS buffer (5 mL) dropwise. […] The filters are immediately counted in a scintillation counter (Beckman LS 6000SC). Counts per minute are averaged among three trials at each concentration.

SF-539 = assay: NCI human cancer cell line growth inhibition: SF-539; format: cell-based; conditions: SF-539, CNS
KM12 = assay: NCI human cancer cell line growth inhibition: KM12; format: cell-based; conditions: KM12, Colon
786-0 = assay: NCI human cancer cell line growth inhibition: 786-0; format: cell-based; conditions: 786-0, Renal
MCF7 = assay: NCI human cancer cell line growth inhibition: MCF7; format: cell-based; conditions: MCF7, Breast
CCRF-CEM = assay: NCI human cancer cell line growth inhibition: CCRF-CEM; format: cell-based; conditions: Leukemia
SN12C = assay: NCI human cancer cell line growth inhibition: SN12C; format: cell-based; conditions: Renal
OVCAR-5 = assay: NCI human cancer cell line growth inhibition: OVCAR-5; format: cell-based; conditions: OVCAR-5, Ovarian
SW-620 = assay: NCI human cancer cell line growth inhibition: SW-620; format: cell-based; conditions: SW-620, Colon
U251 = assay: NCI human cancer cell line growth inhibition: U251; format: cell-based; conditions: U251, CNS
HCT-116 = assay: NCI human cancer cell line growth inhibition: HCT-116; format: cell-based; conditions: HCT-116, Colon
UO-31 = assay: NCI human cancer cell line growth inhibition: UO-31; format: cell-based; conditions: UO-31, Renal
COLO 205 = assay: NCI human cancer cell line growth inhibition: COLO 205; format: cell-based; conditions: COLO 205, Colon
NCI-H460 = format: cell-based, human; conditions: NCI-H460, NSC Lung
SR = assay: NCI human cancer cell line growth inhibition: SR; format: cell-based; conditions: Leukemia
SNB-19 = assay: NCI human cancer cell line growth inhibition: SNB-19; format: cell-based; conditions: SNB-19, CNS
LOX IMVI = assay: NCI human cancer cell line growth inhibition: LOX IMVI; format: cell-based; conditions: Melanoma
OVCAR-8 = assay: NCI human cancer cell line growth inhibition: OVCAR-8; format: cell-based; conditions: OVCAR-8, Ovarian
HL-60(TB) = assay: cells; format: cell-based, human
SF-268 = assay: NCI human cancer cell line growth inhibition: SF-268; format: cell-based; conditions: SF-268, CNS
HS 578T = assay: NCI human cancer cell line growth inhibition: HS 578T; format: cell-based; conditions: Breast
HOP-62 = assay: NCI human cancer cell line growth inhibition: HOP-62; format: cell-based; conditions: Homo sapiens; HOP-62, NSC Lung
NCI/ADR-RES = format: cell-based, human; conditions: Homo sapiens, Breast, read-out: Growth inhibition (GI50) (converted)
MOLT-4 = assay: NCI human cancer cell line growth inhibition: MOLT-4; format: cell-based; conditions: MOLT-4, Leukemia
PC-3 = assay: NCI human cancer cell line growth inhibition: PC-3; format: cell-based; conditions: PC-3, Prostate
HCC-2998 = assay: NCI human cancer cell line growth inhibition: HCC-2998; format: cell-based; conditions: HCC-2998, Colon
MDA-MB-231/ATCC = assay: NCI human cancer cell line growth inhibition: MDA-MB-231/ATCC; format: cell-based; conditions: Breast
MI4 = assay: NCI human cancer cell line growth inhibition: MI4; format: cell-based; conditions: MI4, Melanoma
SNB-75 = assay: NCI human cancer cell line growth inhibition: SNB-75; format: cell-based; conditions: SNB-75, CNS
HOP-92 = assay: NCI human cancer cell line growth inhibition: HOP-92; format: cell-based; conditions: HOP-92, NSC Lung

CCCCCCCC(=O)O[C@H]1/C(=C/C(=O)OC)C[C@H]2C[C@H](CO)OC(=O)C[C@H](O)C[C@@H]3CCCC(CC4CCO[C@H](/C=C/C(C)(C)[C@]1(O)O2)O4)O3 [Formula IIa (702.1)]
GI50 (RPMI-8226; Homo sapiens): 1.51 µM | Difference (GI50 desmethyl vs Bryo-1) (RPMI-8226): −0.82 | Difference (GI50 desmethyl vs Bryo-1) (HT29): −0.25 | GI50 (HT29; Homo sapiens, HT-29): 2.82 µM | GI50 (IGROVI; Homo sapiens): 13.2 µM | Difference (GI50 desmethyl vs Bryo-1) (IGROVI): 0.42 | Difference (GI50 desmethyl vs Bryo-1) (BT-549): 0.39 | GI50 (BT-549; Homo sapiens): 19.5 µM | Ki (PKCδ-C1B): 0.0003 ± 7e-05 µM | activity in PKCδ-C1B assay compared with other analogues (PKCδ-C1B; 702.1 vs corresponding C26 methyl-containing analogue, 48, 49 among C20 ester analogues): significantly higher activity | GI50 (SF-539; Homo sapiens): 1.7 µM | Difference (GI50 desmethyl vs Bryo-1) (SF-539): −0.77 | GI50 (KM12; Homo sapiens): 4.57 µM | Difference (GI50 desmethyl vs Bryo-1) (KM12): −0.14 | Difference (GI50 desmethyl vs Bryo-1) (786-0): −0.26 | GI50 (786-0; Homo sapiens): 3.47 µM | GI50 (MCF7; Homo sapiens): 3.98 µM | Difference (GI50 desmethyl vs Bryo-1) (MCF7): −0.20 | GI50 (CCRF-CEM; Homo sapiens): 1.55 µM | Difference (GI50 desmethyl vs Bryo-1) (CCRF-CEM): −0.51 | GI50 (SN12C; Homo sapiens): 2.57 µM | Difference (GI50 desmethyl vs Bryo-1) (SN12C): −0.49 | GI50 (OVCAR-5; Homo sapiens): 5.25 µM | Difference (GI50 desmethyl vs Bryo-1) (OVCAR-5): −0.28 | GI50 (SW-620; Homo sapiens): 7.59 µM | Difference (GI50 desmethyl vs Bryo-1) (SW-620): 0.38 | GI50 (U251; Homo sapiens, U-251): 3.98 µM | Difference (GI50 desmethyl vs Bryo-1) (U251): −0.30 | Difference (GI50 desmethyl vs Bryo-1) (HCT-116): −0.02 | GI50 (HCT-116; Homo sapiens): 4.79 µM | GI50 (UO-31; Homo sapiens): 14.1 µM | Difference (GI50 desmethyl vs Bryo-1) (UO-31): 0.75 | Difference (GI50 desmethyl vs Bryo-1) (COLO 205): −1.68 | GI50 (COLO 205; Homo sapiens): 0.0832 µM | GI50 (NCI-H460; Homo sapiens, read-out: Growth inhibition (GI50)): < 0.01 µM | Difference (GI50 desmethyl vs Bryo-1) (NCI-H460): −2.40 | more active than bryostatin-1 by (NCI-H460): more than 2 orders of magnitude | GI50 (SR; Homo sapiens): 7.94 µM | Difference (GI50 desmethyl vs Bryo-1) (SR): −0.10 | GI50 (SNB-19; Homo sapiens): 6.31 µM | Difference (GI50 desmethyl vs Bryo-1) (SNB-19): −0.20 | GI50 (LOX IMVI; Homo sapiens): 3.39 µM | Difference (GI50 desmethyl vs Bryo-1) (LOX IMVI): −0.37 | GI50 (OVCAR-8; Homo sapiens): 17 µM | Difference (GI50 desmethyl vs Bryo-1) (OVCAR-8): 0.33 | Difference (GI50 desmethyl vs Bryo-1) (HL-60(TB)): −0.14 | GI50 (HL-60(TB); Homo sapiens, HL-60, read-out: Growth inhibition (GI50)): 1.45 µM | GI50 (SF-268; Homo sapiens): 10.7 µM | Difference (GI50 desmethyl vs Bryo-1) (SF-268): 0.13 | Difference (GI50 desmethyl vs Bryo-1) (HS 578T): 0.02 | GI50 (HS 578T; Homo sapiens): 6.61 µM | GI50 (HOP-62): 16.2 µM | GI50 (NCI/ADR-RES): 18.2 µM | GI50 (MOLT-4; Homo sapiens): < 0.01 µM | Difference (GI50 desmethyl vs Bryo-1) (MOLT-4): −2.50 | more active than bryostatin-1 by (MOLT-4): more than 2 orders of magnitude | GI50 (PC-3; Homo sapiens): 2.51 µM | Difference (GI50 desmethyl vs Bryo-1) (PC-3): −0.30 | Difference (GI50 desmethyl vs Bryo-1) (HCC-2998): −2.24 | more active than bryostatin-1 by (HCC-2998): more than 2 orders of magnitude | GI50 (HCC-2998; Homo sapiens): 0.0288 µM | Difference (GI50 desmethyl vs Bryo-1) (MDA-MB-231/ATCC): −0.49 | GI50 (MDA-MB-231/ATCC; Homo sapiens): 2.04 µM | GI50 (MI4; Homo sapiens): 5.5 µM | Difference (GI50 desmethyl vs Bryo-1) (MI4): −0.26 | GI50 (SNB-75; Homo sapiens): 10.7 µM | Difference (GI50 desmethyl vs Bryo-1) (SNB-75): 0.53 | Difference (GI50 desmethyl vs Bryo-1) (HOP-92): 0.63 | GI50 (HOP-92; Homo sapiens): 21.4 µM
